14 compounds from patent publication US12617783B2, “Heterocyclic GLP-1R agonists” (BIOMEA FUSION, INC., priority 2024, dated 2026) can be followed below.

pEC50: −log10 of the molar value. A value given as a limit tells only on which side of the number the result lay.

T1 sequence (P43220 24-463): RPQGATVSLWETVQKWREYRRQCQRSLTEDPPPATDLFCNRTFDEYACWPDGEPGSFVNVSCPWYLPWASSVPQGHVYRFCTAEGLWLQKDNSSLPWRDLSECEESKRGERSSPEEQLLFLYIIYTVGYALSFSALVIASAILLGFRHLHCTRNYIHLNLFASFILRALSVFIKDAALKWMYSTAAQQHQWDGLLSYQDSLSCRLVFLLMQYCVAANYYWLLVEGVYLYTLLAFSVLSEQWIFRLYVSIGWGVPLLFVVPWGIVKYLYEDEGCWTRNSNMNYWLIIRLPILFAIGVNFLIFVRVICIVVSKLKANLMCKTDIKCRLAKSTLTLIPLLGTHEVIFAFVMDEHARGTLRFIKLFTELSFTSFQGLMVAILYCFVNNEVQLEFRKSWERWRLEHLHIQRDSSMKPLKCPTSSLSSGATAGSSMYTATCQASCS

This experiment has as its target T1, human GLP-1R (Homo sapiens, UniProt P43220).
T1 construct: host or cells: HEK293
Put plainly: GLP-1R cAMP assay (Example B1a, HTRF, 30 min at room temperature). The experiment is classed as cell-based. The conditions noted are these: cAMP accumulation in HEK293 expressing human GLP-1R, no BETP, 30 min room temperature (Method B1a, compounds ID 1-609), Table 1; read-out: EC50. In short, it runs like this: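 Competitive HTRF read-out of cAMP after 30 min room-temperature stimulation, BETP absent, of human GLP-1R-HEK293 cells (1,000/well) in HEPES buffer with 500 μM IBMX and 0.1% BSA. Activation normalised to GLP-1(7-37) positive control. EC50 from 4-parameter non-linear regression.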
(In general: cAMP levels reflect the balance of adenylyl cyclase and phosphodiesterase activity.)
Turning to `Cc1cc(-n2nc3c(c2-n2ccn(-c4ccc5c(cnn5C)c4F)c2=O)[C@@H]2CC[C@H](C3)N2C(=O)c2cc3cc([C@H]4CCOC(C)(C)C4)ccc3n2C2(c3noc(=O)[nH]3)CCC2)cc(C)c1F` [Compound 134, 3-[1-[5-[(4S)-2,2-dimethyltetrahydropyran-4-yl]-2-[(1S,8R)-4-(4-fluoro-3,5-dimethyl-phenyl)-3-[3-(4-fluoro-1-methyl-indazol-5-yl)-2-oxo-imidazol-1-yl]-4,5,11-triazatricyclo[6.2.1.02,6]undeca-2,5-diene-11-carbonyl]indol-1-yl]cyclobutyl]-4H-1,2,4-oxadiazol-5-one], the negative logarithm of the EC50 (pEC50) (commonly −log10 of the EC50, conventionally taken in molar units) is below 5.00.

`Cc1cc(-n2nc3c(c2-n2ccn(-c4ccc5c(cnn5C)c4F)c2=O)[C@@H]2CC[C@H](C3)N2C(=O)c2cc3cc(C4CCOC5(C4)CN(C)C5)ccc3n2C2(c3noc(=O)[nH]3)CC2)cc(C)c1F` (stereo partly drawn) [Compound 135, 3-[1-[2-[(1S,8R)-4-(4-fluoro-3,5-dimethyl-phenyl)-3-[3-(4-fluoro-1-methyl-indazol-5-yl)-2-oxo-imidazol-1-yl]-4,5,11-triazatricyclo[6.2.1.02,6]undeca-2,5-diene-11-carbonyl]-5-(2-methyl-5-oxa-2-azaspiro[3.5]nonan-8-yl)indol-1-yl]cyclopropyl]-4H-1,2,4-oxadiazol-5-one]: the pEC50 is below 5.00.

On to `Cc1cc(-n2nc3c(c2-n2ccn(-c4ccc5c(cnn5C)c4F)c2=O)[C@@H]2CC[C@H](C3)N2C(=O)c2cc3cc(C4CCOC5(COC5)C4)ccc3n2C2(c3noc(=O)[nH]3)CC2)cc(C)c1F` (stereo partly drawn) [Compound 136, 3-[1-[5-(2,5-dioxaspiro[3.5]nonan-8-yl)-2-[(1S,8R)-4-(4-fluoro-3,5-dimethyl-phenyl)-3-[3-(4-fluoro-1-methyl-indazol-5-yl)-2-oxo-imidazol-1-yl]-4,5,11-triazatricyclo[6.2.1.02,6]undeca-2,5-diene-11-carbonyl]indol-1-yl]cyclopropyl]-4H-1,2,4-oxadiazol-5-one], for which the pEC50 was below 5.00.

As for `Cc1cc(-n2nc3c(c2-n2ccn(-c4ccc5c(cnn5C)c4F)c2=O)[C@@H]2CC[C@H](C3)N2C(=O)c2cc3cc([C@H]4CCOC(C)(C)C4)ccc3n2[C@@]2(C#N)C[C@@H]2C)cc(C)c1F` [Compound 137, trans-(1S,2S)-1-[5-[(4S)-2,2-dimethyltetrahydropyran-4-yl]-2-[(1S,8R)-4-(4-fluoro-3,5-dimethyl-phenyl)-3-[3-(4-fluoro-1-methyl-indazol-5-yl)-2-oxo-imidazol-1-yl]-4,5,11-triazatricyclo[6.2.1.02,6]undeca-2,5-diene-11-carbonyl]indol-1-yl]-2-methyl-cyclopropanecarbonitrile], the pEC50 is below 5.00.

`Cc1cc(-n2nc3c(c2-n2ccn(-c4ccc5c(cnn5C)c4F)c2=O)[C@@H]2CC[C@H](C3)N2C(=O)c2cc3cc([C@H]4CCOC(C)(C)C4)ccc3n2[C@@]2(C(N)=O)C[C@@H]2C)cc(C)c1F` [Compound 138, cis-(1S,2S)-1-[5-[(4S)-2,2-dimethyltetrahydropyran-4-yl]-2-[(1S,8R)-4-(4-fluoro-3,5-dimethyl-phenyl)-3-[3-(4-fluoro-1-methyl-indazol-5-yl)-2-oxo-imidazol-1-yl]-4,5,11-triazatricyclo[6.2.1.02,6]undeca-2,5-diene-11-carbonyl]indol-1-yl]-2-methyl-cyclopropanecarboxamide]: the pEC50 is 5.98.

Consider `Cc1cc(-n2nc3c(c2-n2ccn(-c4ccc5c(cnn5C)c4F)c2=O)[C@@H]2CC[C@H](C3)N2C(=O)c2cc3nc(C4CCOC(C)(C)C4)sc3n2[C@@]2(c3noc(=O)[nH]3)C[C@@H]2C)cc(C)c1F` (stereo partly drawn) [Compound 139, 3-[(1S,2S)-1-[2-(2,2-dimethyltetrahydropyran-4-yl)-5-[(1S,8R)-4-(4-fluoro-3,5-dimethyl-phenyl)-3-[3-(4-fluoro-1-methyl-indazol-5-yl)-2-oxo-imidazol-1-yl]-4,5,11-triazatricyclo[6.2.1.02,6]undeca-2,5-diene-11-carbonyl]pyrrolo[3,2-d]thiazol-4-yl]-2-methyl-cyclopropyl]-4H-1,2,4-oxadiazol-5-one], for which the pEC50 is 5.51.

For `Cc1cc(-n2nc3c(c2-n2ccn(-c4ccc5c(cnn5C)c4F)c2=O)[C@@H]2CC[C@H](C3)N2C(=O)c2cc3cc([C@H]4CCOC(C)(C)C4)ccc3n2C(C)(C)c2noc(=O)[nH]2)cc(C)c1F` [Compound 140, 3-[1-[5-[(4S)-2,2-dimethyltetrahydropyran-4-yl]-2-[(1S,8R)-4-(4-fluoro-3,5-dimethyl-phenyl)-3-[3-(4-fluoro-1-methyl-indazol-5-yl)-2-oxo-imidazol-1-yl]-4,5,11-triazatricyclo[6.2.1.02,6]undeca-2,5-diene-11-carbonyl]indol-1-yl]-1-methyl-ethyl]-4H-1,2,4-oxadiazol-5-one], the pEC50 is below 5.00.

`Cc1cc(-n2nc3c(c2-n2ccn(-c4ccc5c(cnn5C)c4F)c2=O)[C@@H]2CC[C@H](C3)N2C(=O)c2cc3cc([C@H]4CCOC(C)(C)C4)ccc3n2[C@@]2(C(=O)NS(C)(=O)=O)C[C@@H]2C)cc(C)c1F` [Compound 201, cis-(1S,2S)-1-[5-[(4S)-2,2-dimethyltetrahydropyran-4-yl]-2-[(1S,8R)-4-(4-fluoro-3,5-dimethyl-phenyl)-3-[3-(4-fluoro-1-methyl-indazol-5-yl)-2-oxo-imidazol-1-yl]-4,5,11-triazatricyclo[6.2.1.02,6]undeca-2,5-diene-11-carbonyl]indol-1-yl]-2-methyl-N-methylsulfonyl-cyclopropanecarboxamide]: the pEC50 is below 5.00.

With `Cc1cc(-n2nc3c(c2-n2ccn(-c4ccc5c(cnn5C)c4F)c2=O)[C@@H]2CC[C@H](C3)N2C(=O)c2cc3nc(C4CCOC(C)(C)C4)sc3n2C2(c3noc(=O)[nH]3)CC2C)cc(C)c1F` (stereo partly drawn) [Compound 202, 3-[1-[2-(2,2-dimethyltetrahydropyran-4-yl)-5-[(1S,8R)-4-(4-fluoro-3,5-dimethyl-phenyl)-3-[3-(4-fluoro-1-methyl-indazol-5-yl)-2-oxo-imidazol-1-yl]-4,5,11-triazatricyclo[6.2.1.02,6]undeca-2,5-diene-11-carbonyl]pyrrolo[3,2-d]thiazol-4-yl]-2-methyl-cyclopropyl]-4H-1,2,4-oxadiazol-5-one], the pEC50 is below 5.00.

With `CCP(=O)(CC)c1ccc(-n2ccn(-c3c4c(nn3-c3cc(C)c(F)c(C)c3)C[C@H]3CC[C@@H]4N3C(=O)c3cc4cc([C@H]5CCOC(C)(C)C5)ccc4n3[C@@]3(c4noc(=O)[nH]4)C[C@@H]3C)c2=O)cc1NC` [Compound 203, 3-[(1S,2S)-1-[2-[(1S,8R)-3-[3-[4-diethylphosphoryl-3-(methylamino)phenyl]-2-oxo-imidazol-1-yl]-4-(4-fluoro-3,5-dimethyl-phenyl)-4,5,11-triazatricyclo[6.2.1.02,6]undeca-2,5-diene-11-carbonyl]-5-[(4S)-2,2-dimethyltetrahydropyran-4-yl]indol-1-yl]-2-methyl-cyclopropyl]-4H-1,2,4-oxadiazol-5-one], the negative logarithm of the EC50 (pEC50) is 6.04.

As for `Cc1cc(-n2nc3c(c2-n2ccn(-c4ccc5c(cnn5C)c4F)c2=O)[C@@H]2CC[C@H](C3)N2C(=O)c2cc3cc([C@H]4CCOC(C)(C)C4)ccc3n2[C@@]2(C(=O)NS(=O)(=O)C3CC3)C[C@@H]2C)cc(C)c1F` [Compound 204, cis-(1S,2S)-N-cyclopropylsulfonyl-1-[5-[(4S)-2,2-dimethyltetrahydropyran-4-yl]-2-[(1S,8R)-4-(4-fluoro-3,5-dimethyl-phenyl)-3-[3-(4-fluoro-1-methyl-indazol-5-yl)-2-oxo-imidazol-1-yl]-4,5,11-triazatricyclo[6.2.1.02,6]undeca-2,5-diene-11-carbonyl]indol-1-yl]-2-methyl-cyclopropanecarboxamide], the pEC50 was below 5.00.

As for `Cc1cc(-n2nc3c(c2-n2ccn(-c4ccc5c(cnn5C)c4F)c2=O)[C@@H]2CC[C@H](C3)N2C(=O)c2cc3cc([C@H]4CCOC(C)(C)C4)ccc3n2[C@@]2(C(=O)NS(=O)(=O)N(C)C)C[C@@H]2C)cc(C)c1F` [Compound 205, cis-(1S,2S)-N-(dimethylsulfamoyl)-1-[5-[(4S)-2,2-dimethyltetrahydropyran-4-yl]-2-[(1S,8R)-4-(4-fluoro-3,5-dimethyl-phenyl)-3-[3-(4-fluoro-1-methyl-indazol-5-yl)-2-oxo-imidazol-1-yl]-4,5,11-triazatricyclo[6.2.1.02,6]undeca-2,5-diene-11-carbonyl]indol-1-yl]-2-methyl-cyclopropanecarboxamide], the pEC50 was below 5.00.

Take `Cc1cc(-n2nc3c(c2-n2ccn(-c4ccc5c(cnn5C)c4F)c2=O)[C@@H]2CC[C@H](C3)N2C(=O)c2cc3nc([C@H]4CCOC(C)(C)C4)sc3n2[C@@]2(c3noc(=O)[nH]3)C[C@@H]2C)cc(C)c1F` [Compound 206, 3-[(1S,2S)-1-[2-[(4S)-2,2-dimethyltetrahydropyran-4-yl]-5-[(1S,8R)-4-(4-fluoro-3,5-dimethyl-phenyl)-3-[3-(4-fluoro-1-methyl-indazol-5-yl)-2-oxo-imidazol-1-yl]-4,5,11-triazatricyclo[6.2.1.02,6]undeca-2,5-diene-11-carbonyl]pyrrolo[3,2-d]thiazol-4-yl]-2-methyl-cyclopropyl]-4H-1,2,4-oxadiazol-5-one]: the pEC50 was 5.84.

For the compound `Cc1cc(-n2nc3c(c2-n2ccn(-c4ccc5c(cnn5C)c4F)c2=O)[C@@H]2CC[C@H](C3)N2C(=O)c2cc3nc([C@@H]4CCOC(C)(C)C4)sc3n2[C@@]2(c3noc(=O)[nH]3)C[C@@H]2C)cc(C)c1F` [Compound 207, 3-[(1S,2S)-1-[2-[(4R)-2,2-dimethyltetrahydropyran-4-yl]-5-[(1S,8R)-4-(4-fluoro-3,5-dimethyl-phenyl)-3-[3-(4-fluoro-1-methyl-indazol-5-yl)-2-oxo-imidazol-1-yl]-4,5,11-triazatricyclo[6.2.1.02,6]undeca-2,5-diene-11-carbonyl]pyrrolo[3,2-d]thiazol-4-yl]-2-methyl-cyclopropyl]-4H-1,2,4-oxadiazol-5-one], the pEC50 is below 5.00.
